# Where a name gives a salt, the structure may show the parent alone. Read-outs that look alike come from different tables or passages of the source. Marks after values point to notes of the source that are not given here.
# Experiments:
# [1] = format: in vivo; settings: SD rats
# Method: Twenty-four SD rats weighing about 180 g to 200 g were randomly divided into 4 groups, with 6 rats in each group, half of which were male and half were female. The rats were given the corresponding drugs by intragastric administration.
# The rats were fasted for 12 hours before administration, but were allowed to drink water freely.
# Preparation of test substances: The preparation of test substances was carried out on the workbench in the related art in the preparation room.
# Blank blood was collected before administration, and blood was collected at predetermined time points of 0.25 h, 0.5 h, 0.75 h, 1 h, 2 h, 3 h, 4 h, 6 h, 8 h, 10 h, and 24 h after administration. About 0.5 mL of blood was collected and placed in an EDTA-K2 tube, and the plasma was separated by centrifugation and stored at −80° C. The prototype and the metabolite, namely, carebastine, in a plasma sample were detected and analyzed by liquid chromatography-mass spectrometry (LC-MS/MS), and pharmacokinetic parameters were calculated.
# KM mice = settings: for Mortality rate of mice / Number of surviving mice / abnormalities during observation period and in gross anatomical observation: single intragastric; for Mortality rate of mice / Number of surviving mice: 14 days observation; for Number of surviving mice: 10 mice per group; for abnormalities during observation period and in gross anatomical observation: low dose, mice
# Method: All drugs were administered by intragastric administration, and the blank control group was administered with an equal volume of 0.5% CMC-Na solution. All animals were fasted for 12 hours before administration, but were allowed to drink water freely.
# After administration, the mice were kept and observed for 14 days, and the toxic reactions (such as death) of the mice were observed and recorded every day. After the observation period, all surviving animals were dissected to observe whether there were obvious lesions in each organ.
# [2] = tested on: histamine-induced shock in guinea pigs; assay: Histamine-induced shock test in guinea pigs; format: in vivo; settings: gavage, equimolar to 1.00 mg/kg ebastine, histamine phosphate i.v. one hour after administration, n = 10; for Time of accelerated respiration: x ± s
# Method: One hour after administration, 0.125 wt. % histamine phosphate saline solution was injected intravenously into lateral sides of hind paws of the guinea pigs at 2 ml/kg. After the injection was completed within 10 s, a stopwatch was used immediately to observe the latency period for the guinea pigs to develop accelerated respiration and collapse with convulsions.
# Hygroscopicity study = format: physicochemical; settings: 25° C.±1° C., relative humidity 80%, 24 hours
# Method: The preparation of carebastine hydrochloride refers to the description of patent U.S. Pat. No. 6,340,761, and the purity is 99% or more. […] (2) An appropriate amount of the sample was spread flat in the weighing bottle. […] (3) The weighing bottle was opened and placed with the lid under the above constant temperature and humidity conditions for 24 hours. (4) The lid was put on the weighing bottle and the weight was accurately weighed (m3).
# [3] = Stability study (influencing factors, HPLC purity); format: physicochemical; settings: for stability under light / Purity Day 12 under light: 5000Lux; for Purity Day 12 under high temperature / Purity Day 12 under light / Purity Day 0 / Purity Day 12 under high humidity: HPLC; for Purity Day 12 under high temperature: 60° C.; for Purity Day 12 under high humidity: RH80%
# Text: Carebastine (Comparative Example 2, Comparative Example 2′), carebastine potassium salt (Example 1), and carebastine p-toluenesulfonate (Example 3, Example 5).
# Three samples of each of carebastine (Comparative Example 2), refined carebastine (Comparative Example 2′), carebastine potassium salt (Example 1), carebastine p-toluenesulfonate (Example 3), and carebastine p-toluenesulfonate (Example 5) were weighed and placed in weighing flasks. The samples of each group were placed under high temperature (60° C.), high humidity (RH80%), and light (5000Lux) conditions, and the samples were taken for testing after 12 days. Note: The refined carebastine of Comparative Example 2′ can be prepared by column chromatography of Comparative Example 2 using common technical means in the related art.
# Detection method: An appropriate amount of each of the samples was weighed accurately, and is dissolved in acetonitrile and quantitatively diluted to a solution containing about 0.08 mg per 1 ml. The detection was carried out using high performance liquid chromatography, octadecylsilane bonded silica gel as a filler, and water-acetonitrile (1:1) as a mobile phase, under a detection wavelength of 256 nm, column temperature of 35° C., and injection volume of 10 μL. Each sample solution was injected into the liquid chromatograph and the chromatogram was recorded.
# [4] = Solubility test in different media; format: physicochemical
# Method: Carebastine (Comparative Example 2) and carebastine p-toluenesulfonate (Example 3).
# Hydrochloric acid solution with a pH of 1.2:7.65 ml of hydrochloric acid was diluted to 1000 ml with water, and shaken evenly to obtain the solution.
# Phosphate buffer with a pH of 4.5:3.40278 g of KH2PO4 was weighed, dissolved in water and diluted to 500 ml, and shaken evenly to obtain the solution.
# Phosphate buffer with a pH of 6.8:3.40353 g of KH2PO4 and 0.4428 g of sodium hydroxide were weighed, dissolved in water and diluted to 500 ml, and shaken evenly to obtain the solution.
# Appropriate amounts of the compounds of Example 3 and Comparative Example 2 were respectively placed in conical flasks containing 50 ml of water, 50 ml of a hydrochloric acid solution with a pH of 1.2, 50 ml of a phosphate buffer with a pH of 4.5, and 50 ml of a phosphate buffer with a pH of 6.8, respectively, so that the solutions were supersaturated and insoluble matter was clearly visible.
# The conical flasks were placed in a thermostatic water bath at 37° C. and an oscillation rate of 120 r/min. Samples were taken at 24 h, 48 h, and 72 h, and detected by liquid chromatography.
# [5] = high dose (equimolar to 5 g/kg ebastine)
# [6] = low dose (equimolar to 2.5 g/kg ebastine)
SMILES,Mortality rate [2],Time of convulsion and collapse [2],Characteristic description (hygroscopicity) (Hygroscopicity study),Weight gain Percentage (Hygroscopicity study) [%],Purity Day 12 under high temperature ([3]; 12 days) [%],Purity Day 12 under light ([3]; 12 days) [%],Purity Day 0 [3] [%],Purity Day 12 under high humidity ([3]; 12 days) [%],Time of accelerated respiration [2] [s],further results
"CC(C)(C)c1ccc(C(=O)CCCN2CCC(OC(c3ccccc3)c3ccccc3)CC2)cc1 [Comparative Example 1, ebastine]",0/10,349* s,–,–,–,–,–,–,–,"gender differences (AUC and Cmax, female vs male rats) ([1]; three female vs three male per group): showed gender differences; content of the prototype ([1]; prototype (ebastine) in plasma, single intragastric 10 mg/kg): lower than 3 ng/mL; MDT (KM mice; both, KM, mouse, in vivo, 14 days): > 2.5 g/kg"
"CC(C)(C(=O)O)c1ccc(C(=O)CCCN2CCC(OC(c3ccccc3)c3ccccc3)CC2)cc1 [Comparative Example 2, 2-(4-(4-(4-(diphenylmethoxy)piperidin-1-yl)butyryl)phenyl)-2-methylpropanoic acid]",–,–,Hygroscopic,6,97.22,87.28,97.78,97.41,–,"stability under light ([3]; 12 days): extremely unstable; solubility ([4]; Hydrochloric acid solution with a pH of 1.2, 37° C., 24 h): 0.46 mg/mL; solubility ([4]; Hydrochloric acid solution with a pH of 1.2, 37° C., 48 h): 0.54 mg/mL; solubility ([4]; Hydrochloric acid solution with a pH of 1.2, 37° C., 72 h): 0.39 mg/mL; solubility ([4]; Phosphate buffer with a pH of 4.5, 37° C., 24 h): 0.20 mg/mL; solubility ([4]; Phosphate buffer with a pH of 4.5, 37° C., 48 h): 0.19 mg/mL; solubility ([4]; Phosphate buffer with a pH of 4.5, 37° C., 72 h): 0.20 mg/mL; solubility ([4]; Phosphate buffer with a pH of 6.8, 37° C., 24 h): 0.03 mg/mL; solubility ([4]; Phosphate buffer with a pH of 6.8, 37° C., 48 h): 0.03 mg/mL; solubility ([4]; Phosphate buffer with a pH of 6.8, 37° C., 72 h): 0.03 mg/mL; solubility ([4]; Water, 37° C., 24 h): 0.72 mg/mL; solubility ([4]; Water, 37° C., 48 h): 0.52 mg/mL; solubility ([4]; Water, 37° C., 72 h): 0.52 mg/mL"
"CC(C)(C(=O)O)c1ccc(C(=O)CCCN2CCC(OC(c3ccccc3)c3ccccc3)CC2)cc1 [Comparative Example 2′, carebastine]",–,–,–,–,99.45,88.11,99.65,99.25,–,–
"CC(C)(C(=O)O)c1ccc(C(=O)CCCN2CCC(OC(c3ccccc3)c3ccccc3)CC2)cc1 [Comparative Example 3, carebastine hydrochloride]",–,–,–,–,–,–,–,–,–,Characteristic description (hygroscopicity) (Hygroscopicity study; hydrochloride): Extremely hygroscopic; Weight gain Percentage (Hygroscopicity study; hydrochloride): 15.9%; solubility [4]: 0.08 mg/mL; solubility ([4]; pH 6.8): 0.01 mg/mL
"CC(C)(C(=O)[O-])c1ccc(C(=O)CCCN2CCC(OC(c3ccccc3)c3ccccc3)CC2)cc1.[K+] [Example 1, potassium 2-(4-(4-(4-(diphenylmethoxy)piperidin-1-yl)butyryl)phenyl)-2-methylpropanoate]",0/10,>600*^▴ s,No or almost no hygroscopicity,−0.2,98.23,97.48,98.42,98.38,294 ± 24.42,Mortality rate of mice (KM mice; [5]): 20%; Number of surviving mice (KM mice; [5]): 8; Mortality rate of mice (KM mice; [6]): 0; Number of surviving mice (KM mice; [6]): 10; abnormalities during observation period and in gross anatomical observation (KM mice; 14 days): no obvious abnormalities were observed; stability under light ([3]; 12 days): slightly reduced
"CC(C)(C(=O)[O-])c1ccc(C(=O)CCCN2CCC(OC(c3ccccc3)c3ccccc3)CC2)cc1.[Na+] [Example 2, sodium 2-(4-(4-(4-(diphenylmethoxy)piperidin-1-yl)butyryl)phenyl)-2-methylpropanoate]",0/10,>600*^▴ s,–,–,–,–,–,–,275 ± 31.41,–
"CC(C)(C(=O)O)c1ccc(C(=O)CCCN2CCC(OC(c3ccccc3)c3ccccc3)CC2)cc1.Cc1ccc(S(=O)(=O)O)cc1 [Example 3, 2-(4-(4-(4-(diphenylmethoxy)piperidin-1-yl)butyryl)phenyl)-2-methylpropanoic acid p-toluenesulfonate]",0/10,>600*^▴ s,Slightly hygroscopic,0.3,–,–,–,–,351 ± 38.16,"Mortality rate of mice (KM mice; [5]): 10%; Number of surviving mice (KM mice; [5]): 9; Mortality rate of mice (KM mice; [6]): 0; Number of surviving mice (KM mice; [6]): 10; abnormalities during observation period and in gross anatomical observation (KM mice; 14 days): no obvious abnormalities were observed; stability under high temperature, high humidity and light conditions ([3]; 12 days): stable; Purity Day 12 under high temperature ([3]; 12 days, p-toluenesulfonate): 99.94%; Purity Day 12 under light ([3]; 12 days, p-toluenesulfonate): 99.91%; Purity Day 0 ([3]; p-toluenesulfonate): 99.99%; Purity Day 12 under high humidity ([3]; 12 days, p-toluenesulfonate): 99.98%"
"CC(C)(C(=O)O)c1ccc(C(=O)CCCN2CCC(OC(c3ccccc3)c3ccccc3)CC2)cc1.CS(=O)(=O)O [Example 4, 2-(4-(4-(4-(diphenylmethoxy)piperidin-1-yl)butyryl)phenyl)-2-methylpropanoic acid methanesulfonate]",0/10,>600*^▴ s,–,–,–,–,–,–,256 ± 24.05,–
"CC(C)(C(=O)O)c1ccc(C(=O)CCCN2CCC(OC(c3ccccc3)c3ccccc3)CC2)cc1.Cc1ccc(S(=O)(=O)O)cc1 [Example 5, carebastine p-toluenesulfonate]",–,–,–,–,97.90,97.80,97.90,97.89,–,–

# Reference: patent US20250326720A1, “CAREBASTINE SALT AND USE OF SAME” (priority 2022, published 2025)
